Experiments:
A549 = test: SRB antitumor screening, A549; format: cell-based; details: for CC50 / GI50: Homo sapiens; for CC50: A549, 48 h, read-out: LC50; for GI50 / TGI: NSCL A549, SRB, 48 hours exposure
Text: (§1) The finality of these assays was to interrupt the growth of a “in vitro” tumor cell culture by means of a continued exhibition of the cells to the sample to be testing.
(§2) A colorimetric type of assay, using sulforhodamine B (SRB) reaction has been adapted for a quantitative measurement of cell growth and viability [following the technique described by Philip Skehan et al. (1990), New colorimetric cytotoxicity assay for anticancer drug screening, J. Natl. Cancer Inst., 82:1107-1112].
(§3) This form of assay employed 96 well cell culture microplates of 9 mm diameter (Faircloth et al. Methods in cell science, (1988), 11(4), 201-205; Mosmann, Journal of. Immunological Methods (1983), 65(1-2), 55-63. Most of the cell lines were obtained from American Type Culture Collection (ATCC) derived from different human cancer types.
(§4) Cells were maintained in RPMI 1640 10% FBS, supplemented with 0.1 g/L penicillin and 0.1 g/L streptomycin sulphate and then incubated at 37° C., 5% CO2 and 98% humidity. For the experiments, cells were harvested from subconfluent cultures using trypsin and resuspended in fresh medium before plating.
(§5) Cells were seeded in 96 well microtiter plates, at 5×10^3 cells per well in aliquots of 195 μL medium, and they were allowed to attach to the plate surface by growing in drug free medium for 18 hours. Afterward, samples were added in aliquots of 5 μL in a ranging from 10 to 10^−8 μg/mL, dissolved in DMSO:EtOH:PBS (0.5:0.5:99). After 48 hours exposure, the antitumor effect were measured by the SRB methodology: cells were fixed by adding 50 μL of cold 50% (wt/vol) trichloroacetic acid (TCA) and incubated for 60 minutes at 4° C. Plates were washed with deionised water and dried. One hundred μL of SRB solution (0.4% wt/vol in 1% acetic acid) was added to each microtiter well and incubated for 10 minutes at room temperature. Unbound SRB was removed by washing with 1% acetic acid. Plates were air dried and bound stain was solubilized with Tris buffer. Optical densities were read on an automated spectrophotometric plate reader at a single wavelength of 490 nm.
(§6) The values for mean +/−SD of data from triplicate wells were calculated. Some parameters for cellular responses could be calculated: GI=growth inhibition, TGI=total growth inhibition (cytostatic effect) and LC=cell killing (cytotoxic effect).

[1] = system: EGFR intracellular signaling (AP-1 activity); test: EGFR signalling inhibition assay (AP-1 luciferase reporter, HeLa-AP1); format: cell-based; details: Homo sapiens; HeLa-AP1 cells, EGF 25 ng/mL stimulation, 18 hours
Text: In this assay, the signal transduction pathway triggered by the activated Epidermal Growth Factor (EGF) membrane receptor is indirectly quantified using an EGF-responsive, API-mediated, luciferase reporter system.
HeLa-AP1, a subclone of HeLa cell line (human cervix carcinoma, ATCC# CCL-2) stably transfected with a construct containing the luciferase reporter gene under the control of the proximal promoter of the human collagenase-3 gene (consensus AP-1 response element TGACTCA at positions −56/−50) were used. Cells were maintained in DMEM supplemented with 10% FCS and 100 units/mL penicillin and streptomycin at 37° C. and 5% CO2. HeLa-AP1 cells were pre-treated with the indicated compounds for 30 min before stimulation with EGF (25 ng/mL). After further 18 hours incubation, cell survival was estimated, for normalisation, by loading cells for 30 min with the vital fluorescent probe calcein-AM (0.5 μM). Fluorescence was quantified using a 1420 Victor^2 plate multilabel counter (Wallac). After that, cells were lysed and assayed for luciferase activity using the Bright-Glo system (Promega) and a 1450 Microbeta plate luminescence counter (Wallac-Trilux). Results were expressed as percentage of AP-1 activity inhibition as compared to control, untreated cells.

MDA-MB-231 = test: SRB antitumor screening, MDA-MB-231; format: cell-based, human; details: Breast MDA-MB-231, SRB, 48 hours exposure; for GI50: Homo sapiens
Text: as §1, §2, §3, §4
as §5, with “One hundred μL of SRB solution (0.4% wt/vol in 1% acetic acid) was added to each microtiter well and incubated for 10 minutes at room temperature. Unbound SRB was removed by washing with 1% acetic acid. Plates were air dried and bound stain was solubilized with Tris buffer.” left out
as §6

HT29 = test: SRB antitumor screening, HT29; format: cell-based, human; details: Colon HT29, SRB, 48 hours exposure; for GI50: Homo sapiens, HT-29
Text: as §1, §2, §3, §4
as §5, with “One hundred μL of SRB solution (0.4% wt/vol in 1% acetic acid) was added to each microtiter well and incubated for 10 minutes at room temperature. Unbound SRB was removed by washing with 1% acetic acid. Plates were air dried and bound stain was solubilized with Tris buffer.” left out
as §6

cytochrome b-cl segment = target: T1, cytochrome b-cl segment (Bos taurus, UniProt P00157+P13272); details: bovine heart submitochondrial particles; cited from earlier work
T1 construct: bovine heart submitochondrial particles at the site of the cytochrome b-cl segment; host or cells: bovine heart submitochondrial particles

[2] = Single-administration dose range finding in mice (MTD); details: mouse, in vivo; CD-1 male mice, single intravenous administration, vehicle micelles
Protocol: The finality of this assay was to determine the maximum tolerated dose (MTD) in mice by a single administration of the drug.
CD-1 male mice were used for this study, weighing ca. 25 g were randomly allocated to several dosing groups. Animals received a single intravenous administration of Stigmatellin A (CAS Number: 91682-96-1, purchased from Fluka (Ref: 85865)) dosed into the lateral vein of the tail. […] Mortality was recorded daily. The Maximum Tolerated Dose (MTD) was determined based on the mortality found in each dose level, calculated when mortality vs. dose is 0%.

CD-1 male mice = test: Multiple-administration dose range finding in mice (MTMD); format: in vivo
Protocol: The finality of this assay was to determine the maximum tolerated multiple dose (MTMD) in mice by a multiple administration of the drug.
CD-1 male mice were used for this study, weighing ca. 25 g were randomly allocated to several dosing groups. Animals received a multiple doses by either intravenous or extravascular (intraperitoneal) route. […] Mortality was daily recorded. The MTMD was determined based on the mortality found in each dose level, calculated when mortality vs. dose is 0%.

[3] = system: photosynthetic electron transport; details: cited from earlier work

| SMILES | CC50 (A549) [nM] | GI50 (A549) [nM] | TGI (A549) [Molar] | IC50 [1] [nM] | TGI (MDA-MB-231) [Molar] | GI50 (MDA-MB-231) [nM] | TGI (HT29) [Molar] | GI50 (HT29) [nM] | inhibitory potency (cytochrome b-cl segment) | MTD at 4 days [2] [mg/kg] | MTMD (CD-1 male mice; ip/5DD, liposomes at 0.035 mg/mL) [mg/kg] | MTMD (CD-1 male mice; iv/5DD, liposomes at 0.096 mg/mL) [mg/kg] | inhibition of photosynthetic electron transport [3] |
| --- | --- | --- | --- | --- | --- | --- | --- | --- | --- | --- | --- | --- | --- |
| CCCC(C)/C=C/C=C/[C@H](OC)[C@@H](C)[C@@H](OC)[C@@H](C)CCc1oc2c(O)c(OC)cc(OC)c2c(=O)c1C (stereo partly shown) [Compound I] | 4150 | 92.3 | 5.28E−7 | 226 | 3.20E−6 | 153 | 5.84E−6 | 867 |  |  |  |  |  |
| C/C=C(C)/C=C/C=C/C(OC)C(C)C(OC)C(C)CCc1oc2c(O)c(OC)cc(OC)c2c(=O)c1C (stereo not shown) [Stigmatellin A] | 7580 | 602 | 1.94E−6 | 9720 |  | 389 |  | 991 | identical with that of antimycin and myxothiazol | 0.44 | 0.28 | 0.14 | powerful inhibitor |

Source: patent publication US20080234363A1, “Antitumoral Compounds” (PHARMA MAR, S.A., priority 2005, published 2008)
